# Legend:
# RBD = RBD (Severe acute respiratory syndrome coronavirus 2, UniProt P0DTC2); assay: biochemical; assay type: binding, SARS-CoV2
compound,measurement,setting,value
CC[C@H](C)[C@H](NC(=O)[C@H](CC(N)=O)NC(=O)[C@@H](NC(=O)[C@H](CC(N)=O)NC(=O)[C@H](Cc1ccc(O)cc1)NC(=O)[C@@H](NC(=O)[C@H](CC(N)=O)NC(=O)[C@H](CC(=O)O)NC(=O)[C@H](C)NC(=O)[C@H](CC(C)C)NC(=O)[C@H](CCC(N)=O)NC(=O)[C@H](CO)NC(=O)[C@H](CCCCN)NC(=O)[C@@H](N)CCSC)C(C)C)[C@@H](C)O)C(=O)N[C@H](C(=O)N[C@@H](CCCCN)C(=O)N[C@@H](CCC(=O)O)C(=O)N[C@@H](CC(N)=O)C(=O)N[C@H](C(=O)N[C@@H](CCC(N)=O)C(=O)N[C@@H](CC(N)=O)C(=O)N[C@@H](CCSC)C(=O)N[C@@H](CC(N)=O)C(=O)N[C@@H](CCC(=O)O)C(=O)N[C@@H](CCC(=O)O)C(=O)N[C@@H](CCC(N)=O)C(=O)N[C@@H](C)C(=O)N[C@@H](CCCCN)C(=O)N[C@H](C(=O)N[C@@H](Cc1ccccc1)C(=O)N[C@@H](CC(C)C)C(=O)N[C@@H](CC(=O)O)C(=O)N[C@@H](CCCCN)C(=O)N[C@@H](Cc1ccccc1)C(=O)N[C@@H](CC(N)=O)C(=O)N[C@@H](Cc1c[nH]cn1)C(=O)N[C@@H](CCC(=O)O)C(=O)N[C@@H](C)C(=O)N[C@@H](CCC(=O)O)C(=O)N[C@@H](CC(=O)O)C(=O)N[C@@H](CC(C)C)C(=O)N[C@@H](Cc1ccccc1)C(=O)N[C@@H](Cc1ccc(O)cc1)C(=O)N[C@@H](CCC(N)=O)C(=O)N[C@@H](CO)C(=O)N[C@@H](CO)C(=O)NCC(=O)N[C@@H](CC(C)C)C(=O)NCC(=O)N[C@@H](CCCCN)C(=O)NCC(=O)N[C@@H](CC(=O)O)C(=O)N[C@@H](Cc1ccccc1)C(=O)N[C@@H](CCCNC(=N)N)C(=O)O)[C@@H](C)O)C(C)C)[C@@H](C)O [PEP9],change in cell viability,HMC-3 cell line,no significant change
same,decrease in the cell viability,HMC-3 cell line,about 10%
same,change in cell viability,HepG2 cell line,no significant change
same,change in cell viability,MRC-5 cell line,no significant change
same,change in cell viability,HEK293T cell line,no significant change
same,Kd,RBD,34.5 nM

# Reference: US12545708B2, “Peptide for treatment of corona virus infection disease COVID-19 and use thereof” (DAEGU GYEONGBUK INSTITUTE OF SCIENCE AND TECHNOLOGY, priority 2020, dated 2026)
